Experimental findings from PubChem BioAssay AID651620 (Broad Institute, 2012) are described below.

By IC90 is commonly meant the point of the concentration-response curve where the effect stands at 90%.

The assay relates to non-replicating M. tuberculosis, luciferase reporter. Nature of the assay: inhibitors of non-replicating M. tuberculosis, dose response, luciferase, dry powder (AID 651620).

As for `[N-]=[N+]=NCCOCCNC(=O)CCCn1cc(CS(=O)c2nnc(-c3ccc(F)cc3)o2)nn1` (stereo unspecified), the 90% effect concentration (IC90) is 125 µM.
